In patent US3957764A, “6-Aminopenicillanic acid derivatives” (priority 1969, dated 1976):
In brackets after ≈: the same amount, converted by molar mass. Where two headings read alike, the source gives them in different places.

Experiments:
[1] = tested on: Escherichia coli HA2 Leo strain; assay: Antibacterial activity (Tables A and B), 50% inhibition; assay type: cell-based; details: HA2LEOSTRAIN, Table A
Text: (§1) This effect is quite unexpected, since of the hitherto known derivatives of 6-aminopenicillanic acid only those being substituted with an acyl group at the 6-amino group have shown an antibacterial effect. The effect on penicillin-sensitive, gram-positive bacteria is less than that of benzylpenicillin and of α-aminobenzylpenicillin, whereas the effect on gram-negative bacilli, e.g. coli and salmonella species, is on a many times higher level than that of e.g. benzylpenicillin and α-aminobenzylpenicillin. […] IC50 means the concentration required for 50% inhibition.
In Table B below the activity of a number of the compounds of the invention against the Escherichia coli HA2 Leo strain of Table A is shown:
The compounds of Table B were obtained by enzymatic hydrolysis of the corresponding esters described in the Examples mentioned by treatment with a 20 per cent mouse serum at 37°C in 90 minutes.

Escherichia Coli HA2 = assay: In vivo experiment: survival of mice infected with Escherichia Coli HA2 (Table C); details: 10 mice
Description: The great difference between the spectrum of the hereinbefore mentioned FL 1060 and those of G-penicillin and ampicillin indicates a difference in the mode of action. This is also supported by in vivo experiments, in which mice (weight 27 to 30 g) were infected with 0.5 ml of a 24 hour old NIH bouillon culture of Escherichia Coli HA2 1000 times diluted in gastric mucin (5%) (Orthana). After half an hour and again after 61/2 hours a single dose was given subcutaneously in 0.5 ml. of a 0.9 per cent sodium chloride solution. After 24 hours the numbers of surviving mice were registered.
All surviving mice were still alive after 4 days, when observation of them was terminated.

Shigella dysenteriae = assay: Antibacterial spectrum (Table A), 50% inhibition; assay type: cell-based
Text: as §1

[2] = tested on: Erysipelothrix insidiosa FU; assay: Antibacterial spectrum (Table A), 50% inhibition; assay type: cell-based; details: Erysipelothrix rhusiopathiae
Text: as §1

Salmonella typhimurium = assay: Antibacterial spectrum (Table A), 50% inhibition; assay type: cell-based; details: Salmonella enterica
Text: as §1

[3] = tested on: Diplococcus pneumoniae EA; assay: Antibacterial spectrum (Table A), 50% inhibition; assay type: cell-based; details: Streptococcus pneumoniae
Text: as §1

[4] = tested on: Salmonella abortivoequina; assay: Antibacterial spectrum (Table A), 50% inhibition; assay type: cell-based
Text: as §1

Bacillus subtilis KA2 = assay: Antibacterial spectrum (Table A), 50% inhibition; assay type: cell-based
Text: as §1

[5] = tested on: Salmonella schottmuelleri; assay: Antibacterial spectrum (Table A), 50% inhibition; assay type: cell-based
Text: as §1

Alcaligenes faecalis = assay: Antibacterial spectrum (Table A), 50% inhibition; assay type: cell-based
Text: as §1

Salmonella typhosa = assay: Antibacterial spectrum (Table A), 50% inhibition; assay type: cell-based; details: Salmonella enterica
Text: as §1

Salmonella hirschfeldii = assay: Antibacterial spectrum (Table A), 50% inhibition; assay type: cell-based
Text: as §1

[6] = tested on: Klebsiella pneumoniae, average of 12 strains; assay: Antibacterial spectrum (Table A), 50% inhibition; assay type: cell-based
Text: as §1

[7] = tested on: Listeria Monocytogenes FT; assay: Antibacterial spectrum (Table A), 50% inhibition; assay type: cell-based
Text: as §1

[8] = tested on: Streptococcus faecalis E13; assay: Antibacterial spectrum (Table A), 50% inhibition; assay type: cell-based; details: Enterococcus faecalis
Text: as §1

Salmonella chlerasuis = assay: Antibacterial spectrum (Table A), 50% inhibition; assay type: cell-based
Text: as §1

[9] = tested on: Staph. aureus, penicillin sensitive; assay: Antibacterial spectrum (Table A), 50% inhibition; assay type: cell-based; details: Staphylococcus aureus
Text: as §1

[10] = tested on: Escherichia coli, average of 36 strains; assay: Antibacterial spectrum (Table A), 50% inhibition; assay type: cell-based
Text: as §1

Salmonella enteritidis = assay: Antibacterial spectrum (Table A), 50% inhibition; assay type: cell-based; details: Salmonella enterica
Text: as §1

Pseudomonas aeruginosa = assay: Antibacterial spectrum (Table A), 50% inhibition; assay type: cell-based
Text: as §1

Streptococcus pyogenes = assay: Antibacterial spectrum (Table A), 50% inhibition; assay type: cell-based
Text: as §1

[11] = tested on: Staph. aureus, penicillinase producing; assay: Antibacterial spectrum (Table A), 50% inhibition; assay type: cell-based; details: Staphylococcus aureus
Text: as §1

Salmonella paratyphi A = assay: Antibacterial spectrum (Table A), 50% inhibition; assay type: cell-based; details: Salmonella enterica
Text: as §1

Vibrio comma = assay: Antibacterial spectrum (Table A), 50% inhibition; assay type: cell-based; details: Vibrio cholerae
Text: as §1

[12] = tested on: Proteus, average of 8 strains; assay: Antibacterial spectrum (Table A), 50% inhibition; assay type: cell-based
Text: as §1

Shigella flexneri = assay: Antibacterial spectrum (Table A), 50% inhibition; assay type: cell-based
Text: as §1

Bacillus megatherium KD = assay: Antibacterial spectrum (Table A), 50% inhibition; assay type: cell-based
Text: as §1

[13] = tested on: Corynebacterium xerosis FF; assay: Antibacterial spectrum (Table A), 50% inhibition; assay type: cell-based
Text: as §1

Solubility in water = assay type: physicochemical
[14] = Salmonella typhimurium, read-out: IC50
[15] = Diplococcus pneumoniae EA, read-out: IC50
[16] = Salmonella abortivoequina, read-out: IC50
[17] = average of 12 strains, read-out: IC50
[18] = Listeria Monocytogenes FT, read-out: IC50
[19] = Streptococcus faecalis E13, read-out: IC50
[20] = Salmonella chlerasuis, read-out: IC50
[21] = Salmonella enteritidis, read-out: IC50
[22] = Proteus, average of 8 strains, read-out: IC50

Structure (SMILES) | IC50 [1] [µg/mL] | IC50 (Shigella dysenteriae) [µg/mL] | IC50 [2] [µg/mL] | IC50 (Salmonella typhimurium; [14]) [µg/mL] | IC50 [3, 15] [µg/mL] | IC50 [4, 16] [µg/mL] | IC50 (Bacillus subtilis KA2; read-out: IC50) [µg/mL] | IC50 [5] [µg/mL] | IC50 (Alcaligenes faecalis) [µg/mL] | IC50 (Salmonella typhosa) [µg/mL] | IC50 (Salmonella hirschfeldii) [µg/mL] | IC50 [6, 17] [µg/mL] | IC50 [7, 18] [µg/mL] | IC50 [8, 19] [µg/mL] | IC50 [9] [µg/mL] | IC50 [10] [µg/mL] | IC50 [11] [µg/mL] | IC50 (Salmonella paratyphi A) [µg/mL] | IC50 (Vibrio comma) [µg/mL] | IC50 (Shigella flexneri) [µg/mL] | further results
CC1(C)S[C@@H]2[C@H](NC(=O)[C@H](N)c3ccccc3)C(=O)N2[C@H]1C(=O)O [Ampicillin, α-aminobenzylpenicillin] | 2 (≈ 5.72 µM) | 0.63 (≈ 1.8 µM) | 0.04 (≈ 0.114 µM) | 0.5 (≈ 1.43 µM) | 0.01 (≈ 0.0286 µM) | 0.25 (≈ 0.715 µM) | 0.025 (≈ 0.0715 µM) | 0.63 (≈ 1.8 µM) | 0.5 (≈ 1.43 µM) | 0.32 (≈ 0.916 µM) | 0.079 (≈ 0.226 µM) | 26 (≈ 74.4 µM) | 0.1 (≈ 0.286 µM) | 0.79 (≈ 2.26 µM) | 0.025 (≈ 0.0715 µM) | 2.2 (≈ 6.3 µM) | 130 (≈ 372 µM) | 0.4 (≈ 1.14 µM) | 0.4 (≈ 1.14 µM) | 0.79 (≈ 2.26 µM) | per cent surviving (Escherichia Coli HA2; single dose 75 μg s.c., given twice, 24 hours): 0 per cent; per cent surviving (Escherichia Coli HA2; single dose 150 μg s.c., given twice, 24 hours): 0 per cent; per cent surviving (Escherichia Coli HA2; single dose 300 μg s.c., given twice, 24 hours (survivors alive after 4 days)): 70 per cent; IC50 (Salmonella chlerasuis; [20]): 0.32 µg/mL (≈ 0.916 µM); IC50 (Salmonella enteritidis; [21]): 0.4 µg/mL (≈ 1.14 µM); IC50 (Pseudomonas aeruginosa; read-out: IC50): > 100 µg/mL; IC50 (Streptococcus pyogenes; read-out: IC50): 0.013 µg/mL (≈ 0.0372 µM); IC50 [12, 22]: 1.3 µg/mL (≈ 3.72 µM)
CC1(C)S[C@@H]2[C@H](/N=C/N3CCCCCC3)C(=O)N2[C@H]1C(=O)O [FL 1060, 6-[(hexahydro-1H-azepin-1-yl)-methyleneamino]-penicillanic acid, hydrochloric, dihydrate] | 0.016 | 0.16 | 20 | 0.063 | 3.2 | 0.04 | 5 | 0.063 | 0.63 | 0.079 | 0.016 | 0.65 | 50 | > 100 | 5 | 0.089 | > 100 | 0.13 | 0.4 | 0.05 | per cent surviving (Escherichia Coli HA2; single dose 7.5 μg s.c., given twice, 24 hours): 0 per cent; per cent surviving (Escherichia Coli HA2; single dose 15 μg s.c., given twice, 24 hours): 0 per cent; per cent surviving (Escherichia Coli HA2; single dose 30 μg s.c., after half an hour and again after 6 1/2 hours, 24 hours (survivors alive after 4 days)): 50 per cent; IC50 (Bacillus megatherium KD; Bacillus megatherium KD, read-out: IC50): 0.5 µg/mL; IC50 (Salmonella chlerasuis; [20]): 0.16 µg/mL; IC50 (Salmonella enteritidis; [21]): 0.16 µg/mL; IC50 ([13]; Corynebacterium xerosis FF, read-out: IC50): 1.6 µg/mL; IC50 (Pseudomonas aeruginosa; read-out: IC50): > 100 µg/mL; IC50 (Streptococcus pyogenes; read-out: IC50): 0.5 µg/mL; IC50 [12, 22]: 0.23 µg/mL
CC1(C)S[C@@H]2[C@H](N=CN3CCCCCC3)C(=O)N2[C@H]1C(=O)O [Example 6, 6-[(Hexahydro-1H-azepin-1-yl)-methyleneamino]-penicillanic acid] | – | – | – | – | – | – | – | – | – | – | – | – | – | – | – | – | – | – | – | – | solubility (Solubility in water): soluble in water
CC1(C)S[C@@H]2[C@H](NC(=O)Cc3ccccc3)C(=O)N2[C@H]1C(=O)O [G-Pen., benzylpenicillin] | 32 (≈ 95.7 µM) | 5 (≈ 15 µM) | 0.025 (≈ 0.0748 µM) | – | – | – | – | 3.2 (≈ 9.57 µM) | 1.6 (≈ 4.78 µM) | 2 (≈ 5.98 µM) | 0.13 (≈ 0.389 µM) | – | – | – | 0.016 (≈ 0.0478 µM) | 32 (≈ 95.7 µM) | 100 (≈ 299 µM) | 3.2 (≈ 9.57 µM) | 0.79 (≈ 2.36 µM) | 10 (≈ 29.9 µM) | IC50 (Salmonella typhimurium; TYPHIMURIUM): 2.5 µg/mL (≈ 7.48 µM); IC50 [3]: 0.01 µg/mL (≈ 0.0299 µM); IC50 ([4]; Salmonella): 2.5 µg/mL (≈ 7.48 µM); IC50 (Bacillus subtilis KA2): 0.01 µg/mL (≈ 0.0299 µM); IC50 (Bacillus megatherium KD; Bacillus): 0.016 µg/mL (≈ 0.0478 µM); IC50 [6]: 29 µg/mL (≈ 86.7 µM); IC50 ([7]; Listeria monocytogenes): 0.1 µg/mL (≈ 0.299 µM); IC50 ([8]; E13): 3.2 µg/mL (≈ 9.57 µM); IC50 (Salmonella chlerasuis; Salmonella): 1.6 µg/mL (≈ 4.78 µM); IC50 (Salmonella enteritidis; ENTERITIDIS): 2.5 µg/mL (≈ 7.48 µM); IC50 ([13]; Corynebacterium xerosis): 0.013 µg/mL (≈ 0.0389 µM); IC50 (Pseudomonas aeruginosa): > 100 µg/mL; IC50 (Streptococcus pyogenes): 0.008 µg/mL (≈ 0.0239 µM); IC50 [12]: 5.4 µg/mL (≈ 16.1 µM)
